Entries after “also recorded” stand apart in the source; their conditions may differ.
Experiments:
[1] = Acute effect on blood lipids: single dose plus Intralipid in overnight-fasted rats; format: in vivo, female Sprague-Dawley rats; settings: single dose 200 μl plus 1 ml Intralipid (200 mg); 0, 30, 60, 120 and 180 min
Description: (§1) Blood was drawn in rats from the intra-orbital bullar plexus under anaesthesia and collected in ice-cold tubes. Serum was obtained by centrifugation at 3000 g for 15 min at 4° C. For acute effect of dimethylaminoethyl dodecyl ether on blood lipids, overnight-fasted rats were given 200 μl dimethylaminoethyl dodecyl ether plus 1 ml (200 mg) Intralipids orally through a gastric gavage and blood collected at 0, 30, 60, 120 and 180 min. Plasma triglycerides was determined with an Sigma diagnostics kit. Plasma fatty acids were measured by NEFAC kit (Wako chemicals GmbH, Neuss, Germany). Plasma PYY (3-36) and leptin were measured with the PYY Enzyme Immunossay kit and leptin Enzyme Immunossay (Phoenix Pharmaceuticals, USA)

[2] = Serum PYY 3-36, leptin and ghrelin after 5 days of oral administration; format: in vivo, female Sprague-Dawley rats
Description: as §1
Stat View program was used for statistics analysis. The data were analyzed using two-way ANOVA followed by post hoc tests for comparison of individual differences. Student's t-test was used for the analysis of triglycerides, PYY3-36, leptin and ghrelin data.

[3] = target: T1, lipase (Homo sapiens, UniProt P04118+P16233); assay: Inhibition of lipase activity in vitro assay, tributyrin or Intralipid as substrates (FIGS. 1A and 1B); format: biochemical; settings: for Inhibition of lipase activity in vitro: tributyrin or intralipid as substrates
T1 sequence (P16233 17-465): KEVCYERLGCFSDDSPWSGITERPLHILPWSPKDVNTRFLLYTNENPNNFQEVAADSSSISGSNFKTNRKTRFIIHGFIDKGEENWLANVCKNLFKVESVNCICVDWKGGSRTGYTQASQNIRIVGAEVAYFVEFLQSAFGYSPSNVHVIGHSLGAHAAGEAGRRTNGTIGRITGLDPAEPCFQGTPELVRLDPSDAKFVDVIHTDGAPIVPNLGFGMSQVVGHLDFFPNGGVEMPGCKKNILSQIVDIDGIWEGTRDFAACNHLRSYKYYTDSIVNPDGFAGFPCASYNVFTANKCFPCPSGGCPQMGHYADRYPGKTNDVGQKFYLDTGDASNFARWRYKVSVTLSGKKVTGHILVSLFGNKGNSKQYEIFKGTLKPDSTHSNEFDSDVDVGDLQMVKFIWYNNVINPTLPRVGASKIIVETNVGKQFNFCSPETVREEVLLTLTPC
T1 sequence (P04118 23-112): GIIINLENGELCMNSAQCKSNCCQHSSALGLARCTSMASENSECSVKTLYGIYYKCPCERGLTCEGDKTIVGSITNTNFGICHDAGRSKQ

[4] = target: T2, Lipase and colipase, purified from human pancreatic gland (Homo sapiens, UniProt P04118+P16233); assay: Determination of lipolysis by colipase/lipase (pH-stat, tributyrine emulsion with NaTDC); format: biochemical
T2 construct: Lipase, Purified from Human Pancreatic Gland; Colipase, Purified from Human Pancreatic Gland; from tissue; host or cells: human pancreatic gland
T2 sequence (P16233 17-465): T1 sequence (P16233 17-465)
T2 sequence (P04118 23-112): T1 sequence (P04118 23-112)
Text: Determination of Lipolysis by Colipase/Lipase
The most important enzyme in the gastro-intestinal tract being responsible for the hydrolysis of lipids/fats in the gastro-intestinal tract is lipase, pancreatic lipase, together with its protein cofactor colipase. These are two proteins, which are secreted from the pancreatic gland. […] The colipase binds to lipase in a molar 1:1 complex and then moves the complex to the triglyceride surface. In the binding between lipase and colipase hydrogen bonds are present, between arg38 of the colipase and ser343 of the lipase and from glu15 of the colipase and the asn241 of the lipase molecules. In the binding of colipase to the substrate (the lipids/fat) there are both hydrophobic bonds as well as ion-ion bonds present. By an isolated lack of colipase it has been shown that colipase has a decisive role for the lipolysis in the gastro-intestinal tract of humans. Pure lipase and colipase have been produced in accordance with the following.
Lipase, Purified from Human Pancreatic Gland
Colipase, Purified from Human Pancreatic Gland
0.5 ml of tributyrine is mixed with 15 ml of a buffer containing 1 mM CaCl2, 150 mM NaCl, 2 mM tris-maleate, pH 7.0 and 4 mM NaTDC (sodium taurodeoxycholate). An emulsion is obtained by continuous stirring. pH is titrated by means of a pH-state, where 0.1 N NaOH is added automatically to keep an constant pH. 10 μl of lipase is added from a stock solution containing 70 units of lipase/ml, followed by 10 μl of colipase from a stock solution containing 1 mg colipase/ml. An activity is registered which is determined to be 100%. An addition of an inhibitor is then made. A new assay is used for every concentration, prepared in the same way. The inhibition is registered as percentage of control. A dose-response plot is obtained for the compounds having an inhibiting ability.

[5] = Blood lipids analysis after 5 days of oral administration; format: in vivo, female Sprague-Dawley rats; settings: 50 μl orally for 5 days
Description: Female female Sprague-Dawley rats were used for all experiments. Rats were housed in a temperature-controlled room (22±1° C.) under a 12-h light (6:00-18:00)/12-h cycle, given free access to water, and fed an libitum on a standard chow unless otherwise stated for a high-fat diet experiment. All procedures using animals were approved by the local ethics committee and followed the guidelines for experiments in animals (European Economic Community Council Directive 86/609/EEC).
Blood was drawn in rats from the intra-orbital bullar plexus under anaesthesia and collected in ice-cold tubes. Serum was obtained by centrifugation at 3000 g for 15 min at 4° C. […] Plasma triglycerides was determined with an Sigma diagnostics kit. Plasma fatty acids were measured by NEFAC kit (Wako chemicals GmbH, Neuss, Germany). Plasma PYY (3-36) and leptin were measured with the PYY Enzyme Immunossay kit and leptin Enzyme Immunossay (Phoenix Pharmaceuticals, USA)

[6] = system: Pancreatic lipase; assay: Pancreatic lipase activity and protein expression in pancreas after 5 days of treatment; format: in vivo, rat; settings: pancreas of rats given 50 μl for 5 days by gastric gavage
Description: At the end of experiment, rats were killed and the pancreas collected for assay of lipase activity and protein expression. Lipase activity was determined with pH stat titration (Mettle Components DK 10, DK 11, DV11) using tributyrin dispersed in bile salt as substrate (Borgström & Erlanson). Lipase expression was analysed by western blot.
Pancreas was homogenized in 0.5% digitonin buffer containing 10 mM sodium phosphate (pH6.0) and 1 mini complete tablet on ice. After centrifuge at 14000 g, 4° C. for 10 min, the supernatant was collected and heating at 65° C., 15 min for inactivate endogenous lipase. The protein amount was measured by BCA method. Equal amount (50 μg) protein was load on 10% SDS-polyacrylamide gels, transferred to the nitrocellulose membranes and then incubated with anti-lipase antibody in the dilution 1:1000 at 4° C. overnight. Pancreatic lipase protein was detected using a horseradish peroxidase-conjugated donkey anti-rabbit antibody (1:8000) for 60 min at room temperature followed with an enhanced chemiluminescence (Pierce).

Dose at which the maximum inhibition of lipase activity was seen ([3]; Intralipid as substrate): 80 µmol
Dose at which the maximum inhibition of lipase activity was seen ([3]; tributyrin as substrate): 40 µmol
Inhibition of lipase activity in vitro [3]: completely inhibited lipase activity
Activity Inhibitor ([4]; amount of inhibitor 0.97 μmol, control activity 0.313): 0.237 µmol/min
Activity Inhibitor ([4]; amount of inhibitor 1.95 μmol, control activity 0.301): 0.204 µmol/min
Activity Inhibitor ([4]; amount of inhibitor 3.89 μmol, control activity 0.308): 0.127 µmol/min
Activity Inhibitor ([4]; amount of inhibitor 6.81 μmol, control activity 0.319): 0.069 µmol/min
Activity Inhibitor ([4]; amount of inhibitor 9.73 μmol, control activity 0.327): 0.033 µmol/min
Activity Inhibitor ([4]; amount of inhibitor 14.59 μmol, control activity 0.328): 0.013 µmol/min
Activity Inhibitor ([4]; amount of inhibitor 19.46 μmol, control activity 0.332): 0 µmol/min
SMILES: CCCCCCCCCCCCOCCN(C)C [dimethylaminoethyl dodecyl ether]
Serum (plasma) fatty acids vs Intralipid alone [1]: significantly reduced; also recorded: decreased
Serum (plasma) triglycerides vs Intralipid alone [1]: significantly reduced
Serum PYY 3-36 level vs controls ([2]; fasted rats, 50 μl for 5 days): no difference
Serum ghrelin level vs controls ([2]; fasted rats, 50 μl for 5 days): markedly increased
Serum leptin level vs controls ([2]; fasted rats, 50 μl for 5 days): markedly decreased; also recorded: significantly decreased
Serum PYY3-36 level ([2]; treated rats, 5 days, control rats 0.86±0.24): 0.85 ± 0.26 ng/mL
Inhibition of lipase activity in vitro ([3]; listed as Dimethylaminoethyl dodecyl ether): inhibited lipase activity in a dose-depended manner
Serum (plasma) cholesterol level vs vehicle [5]: no effect; also recorded: no difference
Serum fatty acids level vs vehicle [5]: decreased serum triglyceride and fatty acids, but this was not statistic significance; also recorded: decreased
Serum triglyceride level vs vehicle [5]: decreased serum triglyceride and fatty acids, but this was not statistic significance; also recorded: decreased
Pancreatic lipase activity vs controls [6]: not changed
Pancreatic lipase protein expression vs controls (western blot) [6]: slightly reduced; also recorded: reduced

— patent publication US7425577B2, “Lipase-colipase inhibitor” (Forskarpatent 1 SYD AB, priority 2003, dated 2008)
